Test results: PMC8070968, “The Alteration of L-Carnitine Transport and Pretreatment Effect under Glutamate Cytotoxicity on Motor Neuron-Like NSC-34 Lines” (Pharmaceutics, 2021)

Assays:
OCTN2/slc22a5 = molecular target: T1, OCTN2/slc22a5 (Mus musculus, UniProt Q9Z0E8); experiment: [3H]L-carnitine uptake in NSC-34 cells with mOCTN2 siRNA knockdown; assay type: cell-based
T1 sequence (Q9Z0E8 1-557): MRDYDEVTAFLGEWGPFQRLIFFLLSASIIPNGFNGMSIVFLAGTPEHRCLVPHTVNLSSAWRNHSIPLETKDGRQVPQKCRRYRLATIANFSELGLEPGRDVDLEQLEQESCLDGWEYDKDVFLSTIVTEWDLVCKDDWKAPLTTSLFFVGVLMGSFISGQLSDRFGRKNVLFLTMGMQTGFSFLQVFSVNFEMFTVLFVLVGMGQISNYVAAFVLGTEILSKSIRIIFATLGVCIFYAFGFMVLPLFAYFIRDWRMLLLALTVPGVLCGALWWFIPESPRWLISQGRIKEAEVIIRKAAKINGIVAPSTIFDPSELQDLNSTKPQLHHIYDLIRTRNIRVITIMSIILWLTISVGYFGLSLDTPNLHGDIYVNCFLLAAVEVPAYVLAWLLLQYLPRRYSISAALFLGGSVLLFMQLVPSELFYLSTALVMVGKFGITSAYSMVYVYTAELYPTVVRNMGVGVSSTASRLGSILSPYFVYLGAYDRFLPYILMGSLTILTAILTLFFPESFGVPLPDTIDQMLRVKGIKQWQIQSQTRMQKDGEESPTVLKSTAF

OCTN1/slc22a4 = molecular target: T2, OCTN1/slc22a4 (Mus musculus, UniProt Q9Z306); experiment: [3H]L-carnitine uptake in NSC-34 cells with mOCTN1 siRNA knockdown; assay type: cell-based
T2 sequence (Q9Z306 1-553): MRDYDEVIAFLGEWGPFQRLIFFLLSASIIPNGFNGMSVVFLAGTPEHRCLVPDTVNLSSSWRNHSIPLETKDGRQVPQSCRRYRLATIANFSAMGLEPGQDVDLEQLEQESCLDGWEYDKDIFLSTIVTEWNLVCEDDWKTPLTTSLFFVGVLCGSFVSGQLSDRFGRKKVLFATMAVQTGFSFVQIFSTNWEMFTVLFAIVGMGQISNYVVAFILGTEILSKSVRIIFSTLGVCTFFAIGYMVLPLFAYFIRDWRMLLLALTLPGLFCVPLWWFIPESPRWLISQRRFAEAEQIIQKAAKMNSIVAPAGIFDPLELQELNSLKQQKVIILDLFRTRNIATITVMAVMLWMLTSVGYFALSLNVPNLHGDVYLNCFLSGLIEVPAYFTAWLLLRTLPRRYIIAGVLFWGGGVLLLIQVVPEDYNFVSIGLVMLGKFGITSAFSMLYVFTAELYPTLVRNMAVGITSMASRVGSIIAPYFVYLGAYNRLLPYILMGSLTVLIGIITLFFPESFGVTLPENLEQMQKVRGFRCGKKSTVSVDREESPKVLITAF

C[N+](C)(C)C[C@H](O)CC(=O)[O-] [LC, L-carnitine]
[3H]L-carnitine uptake in NSC-34 cells with mOCTN2 siRNA knockdown (OCTN2/slc22a5): mOCTN1 and mOCTN2 siRNA-transfected NSC-34 cell lines demonstrated a significant decrease in the slc22a4 and slc22a5 gene expression level | [3H]L-carnitine uptake in NSC-34 cells with mOCTN1 siRNA knockdown (OCTN1/slc22a4): OCTN1/slc22a4 and OCTN2/slc22a5 siRNA transfection study revealed both transporters are involved in LC transport in NSC-34 cell lines
